Measurements: US20110077248A1, “IMIDAZOPYRIDINE AND RELATED ANALOGS AS SIRTUIN MODULATORS” (Sirtris Pharmaceuticals, Inc., priority 2008, published 2011)

Biological target: T1, SIRT1 (Homo sapiens, UniProt Q96EB6)
T1 construct: His-tag (N); made in house; host or cells: E. coli BL21(DE3), T7-promoter vector
T1 sequence (Q96EB6 1-747): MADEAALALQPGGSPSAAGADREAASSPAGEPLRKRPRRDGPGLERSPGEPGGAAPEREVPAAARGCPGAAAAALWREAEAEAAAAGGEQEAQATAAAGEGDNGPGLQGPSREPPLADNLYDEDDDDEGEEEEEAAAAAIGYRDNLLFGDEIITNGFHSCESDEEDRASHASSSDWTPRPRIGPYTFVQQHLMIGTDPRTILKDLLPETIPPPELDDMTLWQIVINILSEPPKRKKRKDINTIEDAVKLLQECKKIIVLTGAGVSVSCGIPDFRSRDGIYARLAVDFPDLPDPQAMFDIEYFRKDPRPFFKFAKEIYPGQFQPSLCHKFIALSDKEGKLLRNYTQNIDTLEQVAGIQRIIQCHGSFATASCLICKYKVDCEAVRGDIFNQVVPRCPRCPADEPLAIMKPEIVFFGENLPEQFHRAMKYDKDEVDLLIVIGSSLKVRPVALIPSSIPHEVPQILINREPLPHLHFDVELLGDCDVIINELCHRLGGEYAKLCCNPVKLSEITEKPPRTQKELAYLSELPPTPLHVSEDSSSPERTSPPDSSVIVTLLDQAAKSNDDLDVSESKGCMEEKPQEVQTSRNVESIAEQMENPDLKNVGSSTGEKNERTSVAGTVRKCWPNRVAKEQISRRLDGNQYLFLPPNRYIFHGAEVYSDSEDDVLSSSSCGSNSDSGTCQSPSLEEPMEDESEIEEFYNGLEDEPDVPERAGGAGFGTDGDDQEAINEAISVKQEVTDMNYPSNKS
Assay: Mass spectrometry based assay for modulators of SIRT1 activity (deacetylation of p53-based acetylated peptide)
Type: biochemical
Details: for EC1.5: concentration of test compound that results in 150% activation of SIRT1, 0.5 μM peptide substrate, 120 μM βNAD+, 10 nM SIRT1, 25 min, 25° C.; for Emax: percent maximum fold activation of SIRT1
Excerpt: A mass spectrometry based assay was used to identify modulators of SIRT1 activity. The mass spectrometry based assay utilizes a peptide having 20 amino acid residues as follows: Ac-EE-K(biotin)-GQSTSSHSK(Ac)NleSTEG-K(5TMRi)-EE-NH2 (SEQ ID NO: 1) wherein K(Ac) is an acetylated lysine residue and Nle is a norleucine. The peptide is labeled with the fluorophore 5TMR (excitation 540 nm/emission 580 nm) at the C-terminus. The sequence of the peptide substrate is based on p53 with several modifications. In addition, the methionine residue naturally present in the sequence was replaced with the norleucine because the methionine may be susceptible to oxidation during synthesis and purification.
The mass spectrometry assay is conducted as follows: 0.5 μM peptide substrate and 120 μM βNAD+ is incubated with 10 nM SIRT1 for 25 minutes at 25° C. in a reaction buffer (50 mM Tris-acetate pH 8, 137 mM NaCl, 2.7 mM KCl, 1 mM MgCl2, 5 mM DTT, 0.05% BSA). Test compounds may be added to the reaction as described above. The SirT1 gene is cloned into a T7-promoter containing vector and transformed into BL21(DE3). After the 25 minute incubation with SIRT1, 10 μL of 10% formic acid is added to stop the reaction. Reactions are sealed and frozen for later mass spec analysis. Determination of the mass of the substrate peptide allows for precise determination of the degree of acetylation (i.e. starting material) as compared to deacetylated peptide (product).
A control for inhibition of sirtuin activity is conducted by adding 1 μL of 500 mM nicotinamide as a negative control at the start of the reaction (e.g., permits determination of maximum sirtuin inhibition). A control for activation of sirtuin activity is conducted using 10 nM of sirtuin protein, with 1 μL of DMSO in place of compound, to determinine the amount of deacetylation of the substrate at a given timepoint within the linear range of the assay. This timepoint is the same as that used for test compounds and, within the linear range, the endpoint represents a change in velocity.
For the above assay, SIRT1 protein was expressed and purified as follows. The SirT1 gene was cloned into a T7-promoter containing vector and transformed into BL21(DE3). The protein was expressed by induction with 1 mM IPTG as an N-terminal His-tag fusion protein at 18° C. overnight and harvested at 30,000×g. Cells were lysed with lysozyme in lysis buffer (50 mM Tris-HCl, 2 mM Tris[2-carboxyethyl]phosphine (TCEP), 10 μM ZnCl2, 200 mM NaCl) and further treated with sonication for 10 min for complete lysis. The protein was purified over a Ni-NTA column (Amersham) and fractions containing pure protein were pooled, concentrated and run over a sizing column (Sephadex S200 26/60 global). The peak containing soluble protein was collected and run on an Ion-exchange column (MonoQ). Gradient elution (200 mM-500 mM NaCl) yielded pure protein. This protein was concentrated and dialyzed against dialysis buffer (20 mM Tris-HCl, 2 mM TCEP) overnight. The protein was aliquoted and frozen at −80° C. until further use.
Sirtuin modulating compounds that activated SIRT1 were identified using the assay described above and are shown below in Table 1. The EC1.5 values represent the concentration of test compounds that result in 150% activation of SIRT1. The EC1.5 values for the activating compounds are represented by A (EC1.5<1.0 uM), B (EC1.5 1-25 uM), C (EC1.5>25 uM). The percent maximum fold activation is represented by A (Fold activation >200%) or B (Fold Activation <200%). “NT” indicates the compound was not tested in a particular assay.

EC1.5	Emax [%]	SMILES
B (EC1.5 1-25 uM)	> 200	Cc1cnc(NC(=O)c2nccn3cc(-c4ccccc4OC(F)(F)F)nc23)s1 [Compound 187]
B (EC1.5 1-25 uM)	> 200	O=C(Nc1nccs1)c1nccn2cc(-c3ccc(F)cc3C(F)(F)F)nc12 [Compound 188]
B (EC1.5 1-25 uM)	> 200	O=C(Nc1ccccn1)c1nccn2cc(-c3ccc(F)cc3C(F)(F)F)nc12 [Compound 189]
A (EC1.5<1.0 uM)	> 200	Cc1cnc(NC(=O)c2nccn3cc(-c4ccc(F)cc4C(F)(F)F)nc23)s1 [Compound 190]
B (EC1.5 1-25 uM)	> 200	O=C(Nc1cccnn1)c1nccn2cc(-c3ccc(F)cc3C(F)(F)F)nc12 [Compound 191]
A (EC1.5<1.0 uM)	> 200	O=C(Nc1nc(CN2CCOCC2)cs1)c1cccn2cc(-c3cc(F)cc(F)c3)nc12 [Compound 192]
A (EC1.5<1.0 uM)	> 200	O=C(Nc1cccc(CN2CCOCC2)n1)c1cccn2cc(-c3cc(F)cc(F)c3)nc12 [Compound 193]
B (EC1.5 1-25 uM)	> 200	O=C(Nc1nc(CN2CCOCC2)cs1)c1nccn2cc(-c3ccc(F)c(F)c3)nc12 [Compound 194]
B (EC1.5 1-25 uM)	> 200	O=C(Nc1cccc(CN2CCOCC2)n1)c1cccn2cc(-c3ccc(F)c(F)c3)nc12 [Compound 195]
B (EC1.5 1-25 uM)	< 200	O=C(Nc1nc(CN2CCOCC2)cs1)c1cccn2cc(-c3cc(F)c(F)c(F)c3)nc12 [Compound 196]
B (EC1.5 1-25 uM)	> 200	O=C(Nc1cccc(CN2CCOCC2)n1)c1cccn2cc(-c3cc(F)c(F)c(F)c3)nc12 [Compound 197]
A (EC1.5<1.0 uM)	< 200	O=C(Nc1nc(CN2CCOCC2)cs1)c1cccn2cc(-c3ccc(F)cc3F)nc12 [Compound 198]
B (EC1.5 1-25 uM)	< 200	O=C(Nc1cccc(CN2CCOCC2)n1)c1cccn2cc(-c3ccc(F)cc3F)nc12 [Compound 199]
A (EC1.5<1.0 uM)	> 200	O=C(Nc1nc(CN2CCOCC2)cs1)c1cccn2cc(-c3cc(F)ccc3F)nc12 [Compound 200]
A (EC1.5<1.0 uM)	> 200	O=C(Nc1cccc(CN2CCOCC2)n1)c1cccn2cc(-c3cc(F)ccc3F)nc12 [Compound 201]
C (EC1.5>25 uM)	< 200	O=C(Nc1nccs1)c1cccn2cc(-c3ccc(C(F)F)cc3)nc12 [Compound 202, 2-(4-(difluoromethyl)phenyl)-N-(thiazol-2-yl)imidazo[1,2-a]pyridine-8-carboxamide]
C (EC1.5>25 uM)	< 200	O=C(Nc1ccccn1)c1cccn2cc(-c3ccc(C(F)F)cc3)nc12 [Compound 203]
B (EC1.5 1-25 uM)	> 200	O=C(Nc1nc(CN2CCOCC2)cs1)c1cccn2cc(-c3ccc(C(F)F)cc3)nc12 [Compound 204]
A (EC1.5<1.0 uM)	> 200	O=C(Nc1cccc(CN2CCOCC2)n1)c1cccn2cc(-c3ccc(C(F)F)cc3)nc12 [Compound 205]
B (EC1.5 1-25 uM)	< 200	O=C(Nc1nccs1)c1cccn2cc(-c3cccc(C(F)F)c3)nc12 [Compound 206]

Further lines, the compound ahead of its results:

SMILES	EC1.5	Emax [%]
O=C(Nc1ccccn1)c1nccn2cc(-c3ccc(N4CCCC4)cc3)nc12 [Compound 169]	C (EC1.5>25 uM)	< 200
O=C(Nc1ccc(CCN2CCOCC2)cc1)c1cccn2cc(-c3ccc(F)cc3C(F)(F)F)nc12 [Compound 170]	A (EC1.5<1.0 uM)	> 200
O=C(Nc1nccs1)c1nccn2cc(-c3ccccc3C(F)(F)F)nc12 [Compound 171]	A (EC1.5<1.0 uM)	> 200
O=C(Nc1ccccn1)c1nccn2cc(-c3ccccc3C(F)(F)F)nc12 [Compound 172]	B (EC1.5 1-25 uM)	> 200
Cc1cnc(NC(=O)c2nccn3cc(-c4ccccc4C(F)(F)F)nc23)s1 [Compound 173]	A (EC1.5<1.0 uM)	> 200
O=C(Nc1cccnn1)c1nccn2cc(-c3ccccc3C(F)(F)F)nc12 [Compound 174]	B (EC1.5 1-25 uM)	> 200
O=C(Nc1ccncn1)c1nccn2cc(-c3ccccc3C(F)(F)F)nc12 [Compound 175]	B (EC1.5 1-25 uM)	> 200
O=C(Nc1cnccn1)c1nccn2cc(-c3ccccc3C(F)(F)F)nc12 [Compound 176]	B (EC1.5 1-25 uM)	> 200
O=C(Nc1nc(CN2CCOCC2)cs1)c1cccn2nc(-c3cccc(C(F)(F)F)c3)nc12 [Compound 177, N-(4-(morpholinomethyl)thiazol-2-yl)-2-(3-(trifluoromethyl)phenyl)-[1,2,4]triazolo[1,5-a]pyridine-8-carboxamide]	B (EC1.5 1-25 uM)	> 200
O=C(Nc1cccc(CN2CCOCC2)n1)c1cccn2nc(-c3cccc(C(F)(F)F)c3)nc12 [Compound 178]	B (EC1.5 1-25 uM)	> 200
O=C(Nc1nc(CN2CCOCC2)cs1)c1cccn2nc(-c3cccc(OC(F)(F)F)c3)nc12 [Compound 179]	B (EC1.5 1-25 uM)	> 200
O=C(Nc1cccc(CN2CCOCC2)n1)c1cccn2nc(-c3cccc(OC(F)(F)F)c3)nc12 [Compound 180]	B (EC1.5 1-25 uM)	> 200
O=C(Nc1nccs1)c1cccn2nc(-c3cccc(N4CCOCC4)c3)nc12 [Compound 181]	B (EC1.5 1-25 uM)	< 200
O=C(Nc1ccccn1)c1cccn2nc(-c3cccc(N4CCOCC4)c3)nc12 [Compound 182]	B (EC1.5 1-25 uM)	< 200
O=C(Nc1nccs1)c1cccn2cc(-c3ccc(N4CCOCC4)cc3)nc12 [Compound 183]	C (EC1.5>25 uM)	< 200
O=C(Nc1ccccn1)c1cccn2cc(-c3ccc(N4CCOCC4)cc3)nc12 [Compound 184]	C (EC1.5>25 uM)	< 200
O=C(Nc1nccs1)c1nccn2cc(-c3ccccc3OC(F)(F)F)nc12 [Compound 185]	B (EC1.5 1-25 uM)	> 200
O=C(Nc1ccccn1)c1nccn2cc(-c3ccccc3OC(F)(F)F)nc12 [Compound 186]	B (EC1.5 1-25 uM)	> 200
